Data on eight compounds can be found in patent US10689340B2, “Substituted indoline derivatives as dengue viral replication inhibitors” (priority 2016, dated 2020).

One data set has as its system DENV-2 16681 strain. In words: DENV-2 antiviral assay (eGFP fluorescence). It is filed as cell-based, Dengue virus. The settings on record: DENV-2 16681 eGFP, Vero cells, MOI 0.5, 3 days. On the procedure: The antiviral activity of all the compounds of the invention was tested against the DENV-2 16681 strain which was labeled with enhanced green fluorescent protein (eGPF). The culture medium consists of minimal essential medium supplemented with 2% of heat-inactivated fetal calf serum, 0.04% gentamycin (50 mg/mL) and 2 mM of L-glutamine. Vero cells, obtained from ECACC, were suspended in culture medium and 25 μL was added to 384-well plates (2500 cells/well), which already contain the antiviral compounds. Typically, these plates contain a 5-fold serial dilution of 9 dilution steps of the test compound at 200 times the final concentration in 100% DMSO (200 nL). […] Finally, each plate contains wells which are assigned as virus controls (containing cells and virus in the absence of compound), cell controls (containing cells in the absence of virus and compound) and medium controls (containing medium in the absence of cells, virus and compounds). To the wells assigned as medium control, 25 μL of culture medium was added instead of Vero cells. Once the cells were added to the plates, the plates were incubated for 30 minutes at room temperature to allow the cells to distribute evenly within the wells. Next, the plates were incubated in a fully humidified incubator (37° C., 5% CO2) until the next day. Then, DENV-2 strain 16681, labeled with eGFP, was added at a multiplicity of infection (MOI) of 0.5. Therefore, 15 μL of virus suspension was added to all the wells containing test compound and to the wells assigned as virus control. In parallel, 15 μL of culture medium was added to the medium and cell controls. Next, the plates were incubated for 3 days in a fully humidified incubator (37° C., 5% CO2). At the day of the read out, the eGFP fluorescence was measured using an automated fluorescence microscope at 488 nm (blue laser). Using an in-house LIMS system, inhibition dose response curves for each compound were calculated and the half maximal effective concentration (EC50) was determined. Therefore, the percent inhibition (I) for every test concentration is calculated using the following formula: I=100*(ST-SCC)/(SVC-SCC); ST, SCC and SVC are the amount of eGFP signal in the test compound, cell control and virus control wells, respectively. The EC50, represents the concentration of a compound at which the virus replication is inhibited with 50%, as measured by a 50% reduction of the eGFP fluorescent intensity compared to the virus control. The EC50 is calculated using linear interpolation (Table 1).

Data set [1] in a line: in vitro. The settings on record: African green monkey.
The next data set relates to DENV-2 strain 16681. The data set is described as follows: Tetravalent RT-qPCR assay, serotype 2. It is filed as cell-based. To be noted: Dengue virus, DENV2, 72 h; RT-qPCR serotype 2 16681, Protocol A, Vero cells, day 3. As for the experimental part: (§1) The antiviral activity of the compounds of the invention was tested against DENV-1 strain TC974#666 (NCPV), DENV-2 strain 16681, DENV-3 strain H87 (NCPV) and DENV-4 strain H241 (NCPV) in a RT-qPCR assay. Therefore, Vero cells were infected with either DENV-1, or -2, or -3, or -4 in the presence or absence of test compounds. At day 3 post-infection, the cells were lysed and cell lysates were used to prepare cDNA of both a viral target (the 3′UTR of DENV; Table 2) and a cellular reference gene (β-actin, Table 2). Subsequently, a duplex real time PCR was performed on a Lightcycler480 instrument. The generated Cp value is inversely proportional to the amount of RNA expression of these targets. Inhibition of DENV replication by a test compound results in a shift of Cp's for the 3′UTR gene. On the other hand, if a test compound is toxic to the cells, a similar effect on β-actin expression will be observed. The comparative ΔΔCp method is used to calculate EC50, which is based on the relative gene expression of the target gene (3′UTR) normalized with the cellular housekeeping gene (β-actin). In addition, CC50 values are determined based on the Cp values acquired for the housekeeping gene β-actin.
(§2) The culture medium consisted of minimal essential medium supplemented with 2% of heat-inactivated fetal calf serum, 0.04% gentamycin (50 mg/mL) and 2 mM of L-glutamine. Vero cells, obtained from ECACC, were suspended in culture medium and 75 μL/well was added in 96-well plates (10000 cells/well), which already contain the antiviral compounds. […] In addition, each plate contains wells which are assigned as virus controls (containing cells and virus in the absence of compound) and cell controls (containing cells in the absence of virus and compound). Once the cells were added in the plates, the plates were incubated in a fully humidified incubator (37° C., 5% CO2) until the next day. Dengue viruses serotype-1, -2, -3 and -4 were diluted in order to obtain a Cp of ˜22-24 in the assay. Therefore, 25 μL of virus suspension was added to all the wells containing test compound and to the wells assigned as virus control. In parallel, 25 μL of culture medium was added to the cell controls. Next, the plates were incubated for 3 days in a fully humidified incubator (37° C., 5% CO2). After 3 days, the supernatant was removed from the wells and the cells were washed twice with ice-cold PBS (˜100 μL). The cell pellets within the 96-well plates were stored at −80° C. for at least 1 day. Next, RNA was extracted using the Cells-to-CT^Tm lysis kit, according to the manufacturer's guideline (Life Technologies). The cell lysates can be stored at −80° C. or immediately used in the reverse transcription step.
(§3) In preparation of the reverse transcription step, mix A (table 3A) was prepared and 7.57 μL/well was dispensed in a 96-well plate. After addition of 5 μL of the cell lysates, a five minute denaturation step at 75° C. was performed (table 3B). Afterwards, 7.43 μL of mix B was added (table 3C) and the reverse transcription step was initiated (table 3D) to generate cDNA.
(§4) Finally, a RT-qPCR mix was prepared, mix C (table 4A), and 22.02 μL/well was dispensed in 96-well LightCycler qPCR plates to which 3 μL of cDNA was added and the qPCR was performed according to the conditions in table 4B on a LightCycler 480.
(§5) Using the LightCycler software and an in-house LIMS system, dose response curves for each compound were calculated and the half maximal effective concentration (EC50) and the half maximal cytotoxic concentration (CC50) were determined (Tables 5-8).
In general terms: In qPCR the cycle at which signal appears reflects the starting amount.

For a further data set, the system named is DENV-4 strain H241. In words: Tetravalent RT-qPCR assay, serotype 4. Type of data set: cell-based. The settings on record: Dengue virus, DENV4, 72 h; RT-qPCR serotype 4 H241, Protocol A, Vero cells, day 3. As for the experimental part: as §1, §2, §3, §4, §5
The next data set relates to DENV-1 strain TC974#666. In words: Tetravalent RT-qPCR assay, serotype 1. Type of data set: cell-based. To be noted: Dengue virus, DENV1, Vero, 72 h. As for the experimental part: as §1, §2, §3, §4, §5
A short description of data set [2]: in vitro. It is filed as cell-based. The settings on record: African green monkey, CC50. As for the experimental part: as §1, with “The comparative ΔΔCp method is used to calculate EC50, which is based on the relative gene expression of the target gene (3′UTR) normalized with the cellular housekeeping gene (β-actin).” left out, “β-actin. […]” for “β-actin.”
as §5

Data set [3] concerns Vero cells. The data set is described as follows: in vitro. Type of data set: cell-based. To be noted: African green monkey, 3 days. As for the experimental part: as §1, with “The comparative ΔΔCp method is used to calculate EC50, which is based on the relative gene expression of the target gene (3′UTR) normalized with the cellular housekeeping gene (β-actin).” left out, “β-actin. […]” for “β-actin.”
as §5

For data set [4], the system named is Vero cells. To be noted: African green monkey.
In a further data set the test system is DENV-3 strain H87. In words: Tetravalent RT-qPCR assay, serotype 3. It is filed as cell-based. To be noted: Dengue virus, DENV3, 72 h; RT-qPCR serotype 3 H87, Protocol A, Vero cells, day 3. As for the experimental part:
as §1, §2, §3, §4, §5

A further data set has as its system DENV-2. To be noted: analogous DENV-2 antiviral assay, reported activity; cited from earlier work.

Where a name gives a salt, the structure may show the parent alone. Read-outs that look alike come from different tables or passages of the source.

Turning to `COc1cc(NC(C(=O)N2CCc3cc(OC)c(C(F)(F)F)cc32)c2ccc(Cl)cc2OC)cc(OCCCC(=O)O)c1` (racemic) (as salt: HCl) [Compound 7, 4-(3-((1-(4-chloro-2-methoxyphenyl)-2-(5-methoxy-6-(trifluoromethyl)indolin-1-yl)-2-oxoethyl)amino)-5-methoxyphenoxy)butanoic acid], the melting point (in general, the temperature, or range, at which the solid turns liquid) came to 160 °C.

With `COc1cc(NC(C(=O)N2CCc3ccc(OC(F)(F)F)cc32)c2ccc(Cl)cc2OC)cc(OCCCC(=O)O)c1` (racemic) (as salt: HCl) [Compound 8, 4-(3-((1-(4-chloro-2-methoxyphenyl)-2-oxo-2-(6-(trifluoro-methoxy)indolin-1-yl)ethyl)amino)-5-methoxyphenoxy)butanoic acid], the melting point amounted to 139 °C.

Compound `COc1cc(NC(C(=O)N2CCc3ccc(C(F)(F)F)cc32)c2ccc(Cl)cc2F)cc(OCCCC(=O)O)c1` (racemic) (as salt: HCl) [Compound 9, 4-(3-((1-(4-chloro-2-fluorophenyl)-2-oxo-2-(6-(trifluoromethyl)indolin-1-yl)ethyl)amino)-5-methoxy-phenoxy)butanoic acid] showed a melting point of 110 °C.

Compound `COc1cc(NC(C(=O)N2CCc3cc(OC)c(C(F)(F)F)cc32)c2ccc(Cl)cc2F)cc(OCCCC(=O)O)c1` (racemic) (as salt: HCl) [Compound 11, 4-(3-((1-(4-chloro-2-fluorophenyl)-2-(5-methoxy-6-(trifluoromethyl)indolin-1-yl)-2-oxoethyl)amino)-5-methoxyphenoxy)butanoic acid] gave a melting point of 121 °C.

The compound `COc1cc(NC(C(=O)N2CCc3ccc(C(F)(F)F)cc32)c2ccc(Cl)cc2)cc(OCCCC(=O)O)c1` (racemic) [Compound 3, 4-(3-((1-(4-chlorophenyl)-2-oxo-2-(6-(trifluoromethyl)indolin-1-yl)ethyl)amino)-5-methoxyphenoxy)butanoic acid] displayed a melting point of 192 °C. The EC50 (usually the midpoint of the concentration-response curve) in the data set with DENV-2 16681 strain (Dengue virus, DENV2, Vero, 72 h) was 0.48 nM. In addition, the CC50 in the data set “in vitro [1]” was 13000 nM.

In the case of `COc1cc(NC(C(=O)N2CCc3ccc(C(F)(F)F)cc32)c2ccc(Cl)cc2OC)cc(OCCCC(=O)O)c1` (single isomer, unassigned) [Compound 6B], the EC50 in the data set with DENV-2 strain 16681 amounted to 0.15 nM; in the data set on DENV-4 strain H241, 16 nM; with DENV-1 strain TC974#666, 0.47 nM; in the data set on DENV-2 16681 strain it was 0.13 nM; with DENV-3 strain H87, 1.7 nM. This compound also gave a CC50 at 3 days in the data set “in vitro [2]” greater than 2500 nM. Besides, the CC50 with Vero cells [3] is greater than 2500 nM; with Vero cells [4], 13000 nM.

As to `COc1cccc(NC(C(=O)N2CCc3ccccc32)c2ccccc2)c1` (centres unmarked) [(56) of WO-2013/045516], in the data set on DENV-2, the EC50 is 450 nM.

On to `CNC(=O)c1cccc(NC(C(=O)c2c[nH]c3ccccc23)c2ccccc2)c1` (centres unmarked) [(170) of WO-2013/045516], for which, in the data set on DENV-2, the EC50 was 440 nM.
